# Experimental data taken from US8703749B2, “Compositions and methods for treating Friedreich's Ataxia” (priority 2009, dated 2014).
# Where a SMILES comes first, the peptide text is derived from it. The star is where a group is joined. Cbz = O=C(OCc1ccccc1)*
# Columns and labels:
# frataxin [1] = target: T1, frataxin (Homo sapiens, UniProt Q16595); test: Frataxin accumulation in HEK-293 Flp-In cells stably expressing frataxin 1-210 (WB, FACS); assay type: cell-based; parameters: HEK-293 Flp-In cells stably transfected with frataxin^1-210; expressed in transfected cells; conditions: HEK-293 Flp-In frataxin 1-210
# T1 sequence (Q16595 42-210): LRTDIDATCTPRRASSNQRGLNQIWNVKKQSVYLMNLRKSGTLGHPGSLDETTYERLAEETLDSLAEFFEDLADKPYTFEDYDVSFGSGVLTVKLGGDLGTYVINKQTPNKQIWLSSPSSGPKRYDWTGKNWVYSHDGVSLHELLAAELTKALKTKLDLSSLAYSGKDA
# Description: (§1) Human embryonic kidney HEK-293 cells and Hela cells were maintained in DMEM supplemented with 10% FBS. HEK-293 were transfected with the calcium/phosphate precipitation method, using 20 μg total DNA (10 μg pIRES-frataxin and 10 μg HA-Ub, or corresponding empty vectors) on 10 cm dishes. Hela cells were transfected using Lipofectamine 2000 reagents (Invitrogen), according to manufacturer's instructions. Where indicated, the day after transfection, cells were treated for 16 h with 10 μM proteasome inhibitors, MG132 or Lactacystin, or 50 ng/ml DUB inhibitor Ubiquitin-Aldehyde. Flp-In-HEK-293 cells (Invitrogen) are HEK-293 variants allowing the stable and isogenic integration and expression of a transfected gene. Flp-In-HEK-293 cells were maintained in DMEM supplemented with 10% FBS and transfected with the calcium/phosphate precipitation method. Briefly, cells were plated on 10 cm dishes and transfected with 10 μg total DNA. The HEK-293 clone stably expressing frataxin^1-210 was previously described (4). The HEK-293 clone stably expressing frataxin^K147R was obtained from cultures in selection medium containing 100 μg/ml hygromycin B (Invitrogen). FRDA lymphoblasts GM15850, GM16798 and GM16241, as well control lymphoblasts GM15851, GM16241 and GM16215, were maintained in RPMI supplemented with 15% FBS. Treatments with specific ubiquitin-competing molecules were performed in 20% FBS containing medium. FRDA fibroblasts GM03816 were maintained in DMEM supplemented with 15% FBS.
# (§2) Cell extracts were prepared in modified RIPA buffer (10 mM sodium phosphate pH7.2, 150 mM NaCl, 1% Na deoxycholate, 0.1% SDS, 1% Np40, 2 mM EDTA) or IP buffer (50 mM Tris-HCl, pH 7.5, 150 mM NaCl, 1% Nonidet P-40, 5 mM EDTA, 5 mM EGTA) supplemented with Complete protease inhibitor cocktail and 2 mM N-Ethylmaleimide (NEM). For immunoblotting, 100 μg of protein extract were separated on 12% SDS-PAGE, blotted onto nitrocellulose membrane and detected with specific antibodies. For in vivo detection of ubiquitin-conjugates […] and 50 ng/ml Ubiquitin-Aldehyde were added to the lysis buffer. For immunoprecipitation, 5 mg of total protein extract prepared as above were incubated for 1-2 h at 4° C. with specific antibodies, previously conjugated to Protein G-sepharose (GE Healthcare). Immunocomplexes were then resolved and analysed by SDS-PAGE. […] Densitometric analysis was performed using ImageJ software.
# Cells were collected after the indicated treatments and fixed for 20 minutes in 4% paraformaldehyde at room temperature. Cells were then permeabilized and blocked in a blocking solution (3% FBS in PBS) containing 0.2% Triton, for 1 hour at room temperature. Cells were then incubated overnight at 4° C. with anti-frataxin monoclonal antibody (MAB-10485, Immunological Science) or anti-Bcl2 monoclonal antibody (sc-509, Santa Cruz) diluted 1:200 in blocking solution. Cells were then washed 3 times in PBS and incubated for 1 hour at room temperature with FITC-conjugated goat anti-mouse IgG/IgM (BD Bioscience Pharmingen) diluted 1:200 in blocking solution. After washing 3 times with PBS cells were analyzed by flow cytometry (Becton Dickinson).
# HEK-293 Flp-In cells stably transfected with frataxin^1-210 were treated for the indicated times with 10 μM MG132. Total cell extracts were blotted as in A. One representative experiment out of four performed with similar results is shown in FIG. 18.
# Formula III induces frataxin precursor accumulation. HEK-293 Flp-In cells stably expressing frataxin^1-210 were treated for the indicated days with 20 μM of Formula III or 10 μM MG132. Total cell extracts were resolved on SDS-PAGE and analyzed with anti-frataxin antibody, or anti-tubulin, as a loading control.
# Formula III induces mature frataxin accumulation. HEK-293 Flp-In cells stably expressing frataxin^1-210 were treated and analyzed as in B. One representative experiment out of three performed with similar results is shown FIG. 5C. […]
# frataxin [2] = target: T1, frataxin; test: Frataxin ubiquitination in HEK-293 cells co-transfected with HA-Ub and frataxin 1-210 (IP/WB); assay type: cell-based; parameters: HEK-293 cells transiently transfected with frataxin^1-210 and HA-tagged ubiquitin (HA-Ub); expressed in transfected cells; host or cells: HEK-293
# Description: as §1, with “The HEK-293 clone stably expressing frataxin^K147R was obtained from cultures in selection medium containing 100 μg/ml hygromycin B (Invitrogen). FRDA lymphoblasts GM15850, GM16798 and GM16241, as well control lymphoblasts GM15851, GM16241 and GM16215, were maintained in RPMI supplemented with 15% FBS. Treatments with specific ubiquitin-competing molecules were performed in 20% FBS containing medium. FRDA fibroblasts GM03816 were maintained in DMEM supplemented with 15% FBS.” left out
# (§3) Cell extracts were prepared in modified RIPA buffer (10 mM sodium phosphate pH7.2, 150 mM NaCl, 1% Na deoxycholate, 0.1% SDS, 1% Np40, 2 mM EDTA) or IP buffer (50 mM Tris-HCl, pH 7.5, 150 mM NaCl, 1% Nonidet P-40, 5 mM EDTA, 5 mM EGTA) supplemented with Complete protease inhibitor cocktail and 2 mM N-Ethylmaleimide (NEM). For immunoblotting, 100 μg of protein extract were separated on 12% SDS-PAGE, blotted onto nitrocellulose membrane and detected with specific antibodies. […] Immunocomplexes were then resolved and analysed by SDS-PAGE. […]
# FIG. 2A illustrates HEK-293 cells transiently transfected with frataxin^1-210 and HA-tagged ubiquitin (HA-Ub) (where indicated) were treated with 10 μM MG132 (MG) for 16 h. […] Total cell extracts (lanes 1-4) or anti-HA immunoprecipitates (lanes 5-8) were analyzed by WB with anti-frataxin antibody. […]
# Formula III prevents frataxin ubiquitination. […] Total cell extracts (upper panel) or anti-HA immunoprecipitated proteins (lower panel) were detected with anti-frataxin antibody.
# frataxin [3] = target: T1, frataxin; test: Frataxin accumulation in FRDA lymphoblasts (FACS, SDS-PAGE/western blot); assay type: cell-based; conditions: FRDA lymphoblasts GM15850; 50 μM; 6 days
# Description: as §1, with “The HEK-293 clone stably expressing frataxin^K147R was obtained from cultures in selection medium containing 100 μg/ml hygromycin B (Invitrogen). FRDA lymphoblasts GM15850, GM16798 and GM16241, as well control lymphoblasts GM15851, GM16241 and GM16215, were maintained in RPMI supplemented with 15% FBS. Treatments with specific ubiquitin-competing molecules were performed in 20% FBS containing medium. FRDA fibroblasts GM03816 were maintained in DMEM supplemented with 15% FBS.” left out
# as §3
# Cells were collected after the indicated treatments and fixed for 20 minutes in 4% paraformaldehyde at room temperature. […] After washing 3 times with PBS cells were analyzed by flow cytometry (Becton Dickinson).
# FRDA lymphoblasts GM15850 were cultured for 6 days in the presence of 50 μM Formula IV or Formula VI. Cells were then fixed, stained with anti-frataxin antibody or anti-Bcl2, as a control, and analyzed by flow cytometry. […]
# FRDA cells = test: Tolerability by FRDA cells; assay type: cell-based, human; conditions: among the different ubiquitin-competing molecules
# frataxin [4] = test: Frataxin precursor accumulation in HeLa cells transiently transfected with frataxin 1-210 (immunoblot); assay type: cell-based, human; conditions: 10 μM proteasome inhibitor, 18 h
# Description: Human embryonic kidney HEK-293 cells and Hela cells were maintained in DMEM supplemented with 10% FBS. HEK-293 were transfected with the calcium/phosphate precipitation method, using 20 μg total DNA (10 μg pIRES-frataxin and 10 μg HA-Ub, or corresponding empty vectors) on 10 cm dishes. Hela cells were transfected using Lipofectamine 2000 reagents (Invitrogen), according to manufacturer's instructions. […] Flp-In-HEK-293 cells (Invitrogen) are HEK-293 variants allowing the stable and isogenic integration and expression of a transfected gene. Flp-In-HEK-293 cells were maintained in DMEM supplemented with 10% FBS and transfected with the calcium/phosphate precipitation method. Briefly, cells were plated on 10 cm dishes and transfected with 10 μg total DNA. The HEK-293 clone stably expressing frataxin^1-210 was previously described (4). […]
# as §3
# frataxin precursor = test: Cycloheximide chase of frataxin precursor degradation in HEK-293 Flp-In cells; assay type: cell-based, human; conditions: 100 μg/ml cycloheximide, 10 μM MG132
# Description: as §2
# HEK-293 Flp-In cells stably transfected with frataxin^1-210 (FIG. 1E) or empty vector (FIG. 1G) were treated for the indicated times with 100 μg/ml cycloheximide (CHX) in the presence or absence of 10 μM MG132 (MG). […] One representative experiment out of five performed with similar results is shown. Pre: precursor, tub: tubulin.
smiles,measurement,setting,value
O=[N+]([O-])c1cc(/C=N/NS(=O)(=O)c2ccc(F)cc2)c(O)c([N+](=O)[O-])c1 [Formula III],accumulation of the frataxin precursor,"frataxin [1]; 20 μM, days, WB",substantial accumulation
same,accumulation of mature frataxin,"frataxin [1]; 20 μM, over a longer time period, WB",substantial accumulation
same,ubiquitination of frataxin 1-210,"frataxin [2]; HEK-293 co-transfected with HA-Ub and frataxin 1-210, 20 μM and 50 μM, revealed after 48 h",efficiently prevents the ubiquitination
O=[N+]([O-])c1cccc(/C=N/NS(=O)(=O)c2ccc(F)cc2)c1O [Formula VI],frataxin accumulation by FACS analysis,frataxin [3],discrete frataxin accumulation detectable in all cells
same,tolerability by FRDA cells,FRDA cells,best tolerated
same,frataxin accumulation by WB and FACS analysis,"frataxin [1]; 100 μM, 18 hours",effective in inducing frataxin accumulation
CC(C)C[C@@H](C=O)NC(=O)[C@H](CC(C)C)NC(=O)[C@H](CC(C)C)NC(=O)OCc1ccccc1 [MG132] (Cbz-Leu-Leu-Leu-aldehyde),accumulation of frataxin precursor compared to untreated cells,frataxin [4],significantly higher amounts of precursor
same,degradation of the endogenous frataxin precursor,frataxin precursor; HEK-293 Flp-In empty vector,prevents the degradation
same,time-dependent degradation of the frataxin precursor,frataxin precursor; HEK-293 Flp-In frataxin 1-210,blocked
same,accumulation of mature frataxin,"frataxin [1]; 10 μM MG132, after 24 hrs",~2.5 fold
same,accumulation of the frataxin precursor,"frataxin [1]; 10 μM MG132, after 24 hrs",> 15 fold
same,accumulation of mono-ubiquitinated frataxin,"frataxin [2]; HEK-293 co-transfected with frataxin 1-210 and HA-Ub, 10 μM MG132, 16 h",allows the accumulation and detection of mono-ubiquitinated frataxin
same,accumulation of poly-ubiquitinated frataxin,"frataxin [2]; HEK-293 co-transfected with frataxin 1-210 and HA-Ub, 10 μM MG132, 16 h, frataxin IP, anti-Ub WB",allows the accumulation and detection also of poly-ubiquitinated frataxin
CC(=O)N[C@@H](CSC(=O)[C@]1([C@@H](O)C(C)C)NC(=O)[C@H](C)[C@@H]1O)C(=O)O [lactacystin],accumulation of frataxin precursor compared to untreated cells,frataxin [4],significantly higher amounts of precursor
